Measurements as given in patent US5476848A, “14B(R) isomers of novel tetracyclic compounds having anti-allergic and anti-asthmatic activities, and their use” (Sankyo Company, Limited, priority 1989, dated 1995).
Counter-ions that a name gives are not always drawn.

How the values were obtained:
[1] = system: eosinophil accumulation; test: Inhibitory effect on antigen induced eosinophil accumulation (Test Example 4); type: in vivo, guinea pig (male Hartley); conditions: po, 1 hr before antigen challenge, BALF 24 hr after; for Inhibitory effect (%) on accumulation of eosinophil: 0.1 mg/kg; for inhibition at 0.1 mg/kg: Cavia porcellus, Eosinophil;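 as to all read-outs here: oral dose 0.1 mg/kg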
Protocol: Male Hartley guinea pigs weighing approximately 400 g were sensitized with ovalbumin by the method described by Engineer et al. (Engineer, D. M. et al., J. Pharmacol., 62, 61-66 (1978)), and the number of eosinophils infiltrating into the bronchoalveolar space due to antigen challenge was examined.
Briefly, the animals were exposed to the antigen (ovalbumin) for 6 min. At 24 hr. after antigen challenge, the guinea pigs were anesthetized with pentobarbital (30 mg/kg, i.p.). The trachea was cannulated by a disposable intravenous catheter, and the airway lumen (especially in the right posterior lobe) was washed with 0.9% saline (10 ml/kg) kept at 37° C. The bronchoalveolar lavage fluid (BALF) from each animal was centrifuged (150 g for 10 min at 4° C.). After removing the supernatant, the cell pellet was resuspended in HBSS (Hank's balanced solution) and a total cell count was performed using a standard hemocytometer. Differential cell counts were done on smears fixed in methanol and stained with Wright-Giemsa solution, and by light microscopy under oil immersion (×1000). The proportion of eosinophil population was expressed as a percentage of total cells, and this ratio together with the total cell count was used to calculate the total number of eosinophils. The percent inhibition of the test compounds which was administered 1 hr before antigen challenge, was calculated as follows:
Percent inhibition=[1-(C-A)/(B-A)]×100
A: negative control: mean value of cell counts in BALF from the animals with inhaled saline
B: positive control: mean value of cell counts in BALF from the animals 24 h after antigen challenge
C: cell counts of BALF for the animals pretreated with a test compound 24 h after antigen challenge

[2] = system: eosinophil chemotaxis; test: Inhibitory effect of eosinophil chemotaxis to zymosan-activated serum (Test Example 4); type: cell-based, guinea pig; conditions: for Inhibitory effect (%) on chemotaxis of eosinophil / inhibition at 0.1 µg/mL: 0.1 μg/ml, ZAS; for inhibition at 0.1 µg/mL: Cavia porcellus, Eosinophil; for potency of the R-isomer relative to the racemate: eosinophil table, R-isomer vs racemate
From the text: Eosinophils were harvested from the peritoneal cavity of polymyxin B-treated guinea pigs (body weight, approx. 400 g) according to the method described by Pincus (Pincus, S. H. et al.: Blood, 52, 127-134 (1978)). The eosinophils were separated and purified by Ficoll-paque (Pharmacia) density gradient centrifugation. Then, the eosinophil chemotaxis to zymosan-activated serum (ZAS) was investigated by a modification of the Boyden micropore filter technique (Gosset, P. et al.: Clin. Exp. Immunol., 65, 654-663 (1986)). Briefly, the assay was carried out in a 48-well microchemotaxis assembly (Neuroprobe; Cabin John, Md., U.S.A.). Cell suspensions were adjusted to 2.5×10^5 /50 μl, and placed in the upper chamber separated from the chemoattractant (ZAS) solution in the lower chamber by a 3 μm pore size polycarbonate membrane filter (Nucleopore Co., Pleasanton, U.S.A.). The cells were incubated for 10 min at 37° C. with the test compounds, prior to their addition to the chemotaxis chamber. Migration was carried out at 37° C. in humidified air with 5% CO2 for 2 h. After the incubation, the migrated eosinophils in the lower Chamber were counted by a hemocytometer.
The percentage inhibition obtained with the test compound was calculated by comparison to the positive control (migration of non-treated cells in response to the ZAS), according to the formula:
Percent inhibition=[1-(A/B)]×100
A: (migration with a test compound)-(spontaneous migration)
B: (positive control migration)-(spontaneous migration)

[3] = system: Passive Cutaneous Anaphylaxis (PCA); test: Inhibitory effect on passive cutaneous anaphylaxis (PCA) in rats (Test Example 1); type: in vivo, rat (male SD); conditions: Rattus norvegicus, po, read-out: Inhibitory rate
Protocol: Male SD rats (5 weeks old) were used as the test animals in groups, each containing 4 animals. The rats were sensitized by intradermal injection of 0.05 ml of the diluted antiserum solution in the dorsal position. 48 hours after this injection, a suspension of the test compound in an aqueous 0.5% w/v tragacanth solution was orally administered to the rats, fasted for one day, and 60 minutes later they were injected in the caudal vein with 5 ml/kg body weight of physiological saline containing 0.4% w/v egg albumin and 1.0% w/v Evans Blue.
The inhibitory rate was calculated by the following equation.
Inhibitory rate (%)=(1-B/A)×100
A: amount of exuded dye in the control group
B: amount of exuded dye in the test group.

[4] = system: Antigen-induced Bronchoconstriction; test: Effect on antigen-induced bronchoconstriction in sensitized guinea pigs (Test Example 2); type: in vivo, guinea pig (male Hartley); conditions: Cavia porcellus, po, 60 min before challenge, read-out: Inhibitory rate
Protocol: The test animals used were male guinea pigs of the Hartley strain (weighing about 400 to 500 g). These animals were sensitized according to Morris' method [H. R. Morris; Br. J. Pharmac., 67, 179-184 (1979)]. The guinea pigs were subcutaneously and intraperitoneally injected twice, each time with 25 mg of egg albumin (grade 5, Sigma) at weekly intervals. 7 days after the second of these weekly injections, the animals were fasted for one day and then exposed to an aerosol of egg albumin (10 mg/ml). All of the animals so exposed responded with convulsions, indicating respiratory distress due to airway constriction, within 6 minutes.
60 minutes before the egg albumin challenge, one of the test compounds shown in the following Table 5 was administered orally to each of the animals.

Structure (SMILES): CCOC(=O)CCCN1CCN2c3ccccc3Cc3ccccc3C2C1 (racemic) [19 HCl racemate]
- Inhibitory effect (%) on accumulation of eosinophil [1]: 48%
- Inhibitory effect (%) on chemotaxis of eosinophil [2]: 5%

Structure (SMILES): CCOC(=O)CCCN1CCN2c3ccccc3Cc3ccccc3C2C1 (racemic) [19 fumarate racemate]
- Inhibitory effect (%) on accumulation of eosinophil [1]: 24%
- inhibition at 0.1 µg/mL [2]: 3%

Structure (SMILES): CCOC(=O)CCCCCN1CCN2c3ccccc3Cc3ccccc3C2C1 (racemic) [21 HCl racemate]
- inhibition at 0.1 mg/kg [1]: 37%
- inhibition at 0.1 µg/mL [2]: 23%

Structure (SMILES): O=C(O)CCCN1CCN2c3ccccc3Cc3ccccc3C2C1 (racemic) [22 HCl racemate]
- Inhibitory effect (%) on accumulation of eosinophil [1]: 31%
- Inhibitory effect (%) on chemotaxis of eosinophil [2]: 6%

Structure (SMILES): O=C(O)CCCN1CCN2c3ccccc3Cc3ccccc3C2C1 (racemic) [22 free racemate]
- Inhibitory effect (%) on accumulation of eosinophil [1]: 3%
- inhibition at 0.1 µg/mL [2]: 9%

Structure (SMILES): O=C(O)CCCCCN1CCN2c3ccccc3Cc3ccccc3C2C1 (racemic) [24 HCl racemate]
- inhibition at 0.1 mg/kg [1]: 43%
- inhibition at 0.1 µg/mL [2]: 25%

Structure (SMILES): CCOC(=O)CCCN1CCN2c3ccccc3Cc3ccccc3C2C1 (racemic) [Example 19, Ethyl 4-(1,2,3,4,10,14b-hexahydrodibenzo[c,f]pyrazino[1,2-a]azepin-2-yl)butanoate]
- inhibition at 0.05 mg/kg [3]: 55%
- inhibition at 0.2 mg/kg [3]: 61%
- inhibition at 0.025 mg/kg [4]: 40%
- inhibition at 0.4 mg/kg [4]: 100%

Structure (SMILES): O=C(O)CCCCCN1CCN2c3ccccc3Cc3ccccc3C2C1 (racemic) [Example 24, 6-(1,2,3,4,10,14b-Hexahydrodibenzo[c,f]pyrazino[1,2-a]azepin-2-yl)hexanoic acid]
- inhibition at 0.05 mg/kg [3]: 46%
- inhibition at 3.1 mg/kg [3]: 74%
- inhibition at 0.1 mg/kg [4]: 80%
- inhibition at 0.4 mg/kg [4]: 100%

Structure (SMILES): CCOC(=O)CCCN1CCN2c3ccccc3Cc3ccccc3[C@@H]2C1 [19 HCl R-isomer]
- Inhibitory effect (%) on accumulation of eosinophil [1]: 58%
- Inhibitory effect (%) on chemotaxis of eosinophil [2]: 43%

Structure (SMILES): CCOC(=O)CCCN1CCN2c3ccccc3Cc3ccccc3[C@H]2C1 [19 HCl S-isomer]
- Inhibitory effect (%) on accumulation of eosinophil [1]: 41%
- Inhibitory effect (%) on chemotaxis of eosinophil [2]: 1%

Structure (SMILES): CCOC(=O)CCCN1CCN2c3ccccc3Cc3ccccc3[C@@H]2C1 [19 fumarate R-isomer]
- inhibition at 0.1 mg/kg [1]: 62%
- inhibition at 0.1 µg/mL [2]: 55%

Structure (SMILES): CCOC(=O)CCCN1CCN2c3ccccc3Cc3ccccc3[C@H]2C1 [19 fumarate S-isomer]
- inhibition at 0.1 mg/kg [1]: 32%
- Inhibitory effect (%) on chemotaxis of eosinophil [2]: 0%

Structure (SMILES): CCOC(=O)CCCCCN1CCN2c3ccccc3Cc3ccccc3[C@@H]2C1 [21 HCl R-isomer]
- inhibition at 0.1 mg/kg [1]: 80%
- inhibition at 0.1 µg/mL [2]: 50%
- potency of the R-isomer relative to the racemate [2]: about double the potency

Structure (SMILES): CCOC(=O)CCCCCN1CCN2c3ccccc3Cc3ccccc3[C@H]2C1 [21 HCl S-isomer]
- inhibition at 0.1 mg/kg [1]: 13%
- inhibition at 0.1 µg/mL [2]: 9%

Structure (SMILES): O=C(O)CCCN1CCN2c3ccccc3Cc3ccccc3[C@H]2C1 [22 HCl S-isomer]
- inhibition at 0.1 mg/kg [1]: 47%
- inhibition at 0.1 µg/mL [2]: 5%

Structure (SMILES): O=C(O)CCCCCN1CCN2c3ccccc3Cc3ccccc3[C@@H]2C1 [24 HCl R-isomer]
- inhibition at 0.1 mg/kg [1]: 62%
- inhibition at 0.1 µg/mL [2]: 47%
- potency of the R-isomer relative to the racemate [2]: about double the potency

Structure (SMILES): O=C(O)CCCCCN1CCN2c3ccccc3Cc3ccccc3[C@H]2C1 [24 HCl S-isomer]
- inhibition at 0.1 mg/kg [1]: 2%
- inhibition at 0.1 µg/mL [2]: 0%

Structure (SMILES): CCOC(=O)COCCN1CCN2c3ccccc3Cc3ccccc3C2C1 (centres unmarked) [Example 1]
- inhibition at 0.2 mg/kg [3]: 56%
- inhibition at 3.1 mg/kg [3]: 65%
- inhibition at 0.025 mg/kg [4]: 20%
- inhibition at 0.1 mg/kg [4]: 50%

Structure (SMILES): O=C(O)COCCN1CCN2c3ccccc3Cc3ccccc3C2C1 (centres unmarked) [Example 2]
- inhibition at 0.05 mg/kg [3]: 62%
- inhibition at 0.8 mg/kg [3]: 74%
- inhibition at 0.025 mg/kg [4]: 20%
- inhibition at 0.1 mg/kg [4]: 80%

Structure (SMILES): CCOC(=O)COCCN1CCN2c3ccc(Cl)cc3Cc3ccccc3C2C1 (centres unmarked) [Example 4]
- inhibition at 3.1 mg/kg [3]: 63%

Structure (SMILES): COC(=O)COCCN1CCN2c3ccc(Br)cc3Cc3ccccc3C2C1 (centres unmarked) [Example 5, Methyl 2-(8-bromo-1,2,3,4,10,14b-hexahydrodibenzo[c,f]pyrazino[1,2-a]azepin-2-yl)ethoxyacetate]
- inhibition at 0.8 mg/kg [3]: 23%
- inhibition at 3.1 mg/kg [3]: 67%

Structure (SMILES): OCCOCCOCCN1CCN2c3ccccc3Cc3ccccc3C2C1 (centres unmarked) [Example 7]
- inhibition at 0.8 mg/kg [3]: 50%
- inhibition at 3.1 mg/kg [3]: 57%
- inhibition at 12.5 mg/kg ([3]; 12.5 mg/kg): 72%
- inhibition at 0.4 mg/kg [4]: 100%

Structure (SMILES): O=C(O)COCCN1CCN2c3ccc(Cl)cc3Cc3ccccc3C2C1 (centres unmarked) [Example 9]
- inhibition at 3.1 mg/kg [3]: 63%

Structure (SMILES): O=C(O)COCCN1CCN2c3ccc(Br)cc3Cc3ccccc3C2C1 (centres unmarked) [Example 10]
- inhibition at 3.1 mg/kg [3]: 53%

Structure (SMILES): O=C(O)COCCN1CCN2c3ncccc3Cc3ccccc3C2C1 (centres unmarked) [Example 11, 2-(1,2,3,4,10,14b-Hexahydrobenzo[c]pyrazino[1,2-a]pyrido[5,6-c]azepin-2-yl)ethoxyacetic acid]
- inhibition at 0.8 mg/kg [3]: 49%
- inhibition at 3.1 mg/kg [3]: 60%

Structure (SMILES): OCCCN1CCN2c3ccccc3Cc3ccccc3C2C1 (centres unmarked) [Example 16, 3-(1,2,3,4,10,14b-Hexahydrodibenzo[c,f]pyrazino[1,2-a]azepin-2-yl)propanol]
- inhibition at 0.8 mg/kg [3]: 48%
- inhibition at 3.1 mg/kg [3]: 63%
- inhibition at 0.1 mg/kg [4]: 60%
- inhibition at 0.4 mg/kg [4]: 100%

Structure (SMILES): OCCCCCCN1CCN2c3ccccc3Cc3ccccc3C2C1 (centres unmarked) [Example 18, 6-(1,2,3,4,10,14b-Hexahydrodibenzo[c,f]pyrazino[1,2-a]azepin-2-yl)hexanol]
- inhibition at 0.4 mg/kg [4]: 100%

Structure (SMILES): CN(C)C(=O)COCCN1CCN2c3ccccc3Cc3ccccc3C2C1 (stereo not drawn) [Example 27, α-[2-(1,2,3,4,10,14b-Hexahydrodibenzo[c,f]pyrazino[1,2-a]azepin-2-yl)ethoxy]-N,N-dimethylacetamide]
- inhibition at 3.1 mg/kg [3]: 69%

Structure (SMILES): CCCN(CCC)C(=O)COCCN1CCN2c3ccccc3Cc3ccccc3C2C1 (stereo not drawn) [Example 31, α-[2-(1,2,3,4,10,14b-Hexahydrodibenzo[c,f]pyrazino[1,2-a]azepin-2-yl)ethoxy]-N,N-dipropylacetamide]
- inhibition at 0.8 mg/kg [3]: 32%
- inhibition at 3.1 mg/kg [3]: 76%

Structure (SMILES): O=C(O)CN1CCN2c3ccccc3Cn3cccc3C2C1 (centres unmarked) [Prior art compound G, Sodium (1,3,4,14btetrahydro-2H,10H-pyrazino[1,2a]pyrrolo[2,1c][1,4]benzodiazepin-yl)acetate, reference compound]
- inhibition at 3.1 mg/kg [3]: 28%
